# Molecular target: USP7 (Homo sapiens (Human), UniProt Q93009)
# Experiment: USP7 fluorescence polarisation (FP) biochemical assay, ubiquitin-Lys-TAMRA substrate
# Settings: not given
# Summary of the method: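 Full-length His6-USP7 (2.5 nM) incubated ± inhibitor (8-point dilutions, 200 to 0.1 μM before addition) in 50 mM HEPES pH 7.2, 150 mM NaCl, 0.5 mM EDTA, 5 mM DTT, 0.05% BSA, 0.05% CHAPS. Ubiquitin-Lys-TAMRA cleavage followed by FP (ex 530/em 575 nm) every 15 min for 1.5 h; normalised to no-compound control.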
# Sequence of USP7 (Q93009 whole entry): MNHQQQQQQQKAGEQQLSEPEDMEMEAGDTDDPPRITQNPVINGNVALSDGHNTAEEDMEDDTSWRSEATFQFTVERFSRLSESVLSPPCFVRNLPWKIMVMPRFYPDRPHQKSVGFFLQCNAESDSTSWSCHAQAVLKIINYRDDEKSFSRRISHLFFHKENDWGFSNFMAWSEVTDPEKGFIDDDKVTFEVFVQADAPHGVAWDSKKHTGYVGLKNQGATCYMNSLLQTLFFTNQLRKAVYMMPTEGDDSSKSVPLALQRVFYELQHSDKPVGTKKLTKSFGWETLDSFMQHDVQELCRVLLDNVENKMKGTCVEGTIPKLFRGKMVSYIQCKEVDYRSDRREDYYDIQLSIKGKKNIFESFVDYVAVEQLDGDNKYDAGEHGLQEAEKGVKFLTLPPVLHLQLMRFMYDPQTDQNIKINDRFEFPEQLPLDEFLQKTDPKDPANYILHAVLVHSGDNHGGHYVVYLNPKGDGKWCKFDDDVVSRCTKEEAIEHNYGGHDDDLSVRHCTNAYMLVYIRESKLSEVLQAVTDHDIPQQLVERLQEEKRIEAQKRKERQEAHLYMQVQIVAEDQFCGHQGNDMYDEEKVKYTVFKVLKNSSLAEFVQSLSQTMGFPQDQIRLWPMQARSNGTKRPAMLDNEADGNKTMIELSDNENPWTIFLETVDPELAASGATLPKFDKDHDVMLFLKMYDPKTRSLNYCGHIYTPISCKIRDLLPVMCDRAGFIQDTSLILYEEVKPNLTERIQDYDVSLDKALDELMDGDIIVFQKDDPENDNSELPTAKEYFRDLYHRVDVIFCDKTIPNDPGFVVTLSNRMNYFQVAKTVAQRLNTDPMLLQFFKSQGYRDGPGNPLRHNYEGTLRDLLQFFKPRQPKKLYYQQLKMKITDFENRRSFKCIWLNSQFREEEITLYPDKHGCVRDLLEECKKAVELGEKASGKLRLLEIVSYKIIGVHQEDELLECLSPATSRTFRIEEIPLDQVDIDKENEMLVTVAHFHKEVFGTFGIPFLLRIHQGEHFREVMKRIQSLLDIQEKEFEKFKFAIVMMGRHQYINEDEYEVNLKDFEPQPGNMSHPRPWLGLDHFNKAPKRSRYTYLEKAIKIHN
row,SMILES,IC50 [nM]
1,"C[C@H](CC(=O)N1CCC(O)(Cn2cnc3c(-c4cccc(CN5CCOCC5)c4)n(C)nc3c2=O)CC1)c1ccccc1 [Example 108, (R)-6-((4-Hydroxy-1-(3-phenylbutanoyl)piperidin-4-yl)methyl)-2-methyl-3-(3-(morpholinomethyl)phenyl)-2H-pyrazolo[4,3-d]pyrimidin-7(6H)-one]",250 to 999

# Same assay, conditions: Table 4, biochemical assay; average of at least duplicate experiments; read-out: USP7 IC50
row,SMILES,IC50 [nM]
1,"C[C@H](CC(=O)N1CCC(O)(Cn2cnc3c(nc(C(F)(F)F)n3C)c2=O)CC1)c1ccccc1 [Example 96, (R)-1-((4-Hydroxy-1-(3-phenylbutanoyl)piperidin-4-yl)methyl)-9-methyl-8-(trifluoromethyl)-1H-purin-6(9H)-one]",1000 to 200000
2,"C[C@H](CC(=O)N1CCC(O)(Cn2cnc(N3CCOCC3)cc2=O)CC1)c1ccccc1 [Example 100, (R)-3-((4-Hydroxy-1-(3-phenylbutanoyl)piperidin-4-yl)methyl)-6-morpholinopyrimidin-4(3H)-one]",1000 to 200000
3,"C[C@H](CC(=O)N1CCC(O)(C(O)c2cnc3ccccn3c2=O)CC1)c1ccccc1 (stereo partly drawn) [Example 101, 3-(Hydroxy(4-hydroxy-1-((R)-3-phenylbutanoyl)piperidin-4-yl)methyl)-4H-pyrido[1,2-a]pyrimidin-4-one]",1000 to 200000
4,C[C@H](CC(=O)N1CCC(O)(Cn2cnc(-c3cncnc3)cc2=O)CC1)c1ccccc1 [Example 102],1000 to 200000
5,"C[C@H](CC(=O)N1CCC(O)(Cn2cnc(NCCO)cc2=O)CC1)c1ccccc1 [Example 103, (R)-3-((4-Hydroxy-1-(3-phenylbutanoyl)piperidin-4-yl)methyl)-6-((2-hydroxyethyl)amino)pyrimidin-4(3H)-one]",1000 to 200000
6,"C[C@H](CC(=O)N1CCC(O)(C(O)c2cnc3c(-c4ccccc4)cccn3c2=O)CC1)c1ccccc1 (stereo partly drawn) [Example 105, 3-(Hydroxy(4-hydroxy-1-((R)-3-phenylbutanoyl)piperidin-4-yl)methyl)-9-phenyl-4H-pyrido[1,2-a]pyrimidin-4-one]",1000 to 200000
7,"C[C@H](CC(=O)N1CCC(O)(Cn2cnc(N[C@@H]3CCNC3)cc2=O)CC1)c1ccccc1 [Example 110, 3-((4-Hydroxy-1-((R)-3-phenylbutanoyl)piperidin-4-yl)methyl)-6-(((R)-pyrrolidin-3-yl)amino)pyrimidin-4(3H)-one]",250 to 999
8,"Cc1c(NCCN2CCCC2)ncn(CC2(O)CCN(C(=O)C[C@@H](C)c3ccccc3)CC2)c1=O [Example 111, (R)-3-((4-Hydroxy-1-(3-phenylbutanoyl)piperidin-4-yl)methyl)-5-methyl-6-((2-(pyrrolidin-1-yl)ethyl)amino)pyrimidin-4(3H)-one]",1000 to 200000
9,"Cn1nc2c(=O)n(CC3(O)CCN(C(=O)OCc4ccccc4)CC3)cnc2c1-c1ccc(CN)cc1 [Example 112, Benzyl 4-((3-(4-(aminomethyl)phenyl)-2-methyl-7-oxo-2,7-dihydro-6H-pyrazolo[4,3-d]pyrimidin-6-yl)methyl)-4-hydroxypiperidine-1-carboxylate]",1000 to 200000
10,"CC(=O)N(CCN1CCCC1)c1cc(=O)n(CC2(O)CCN(C(=O)C[C@@H](C)c3ccccc3)CC2)cn1 [Example 113, (R)—N-(1-((4-Hydroxy-1-(3-phenylbutanoyl)piperidin-4-yl)methyl)-6-oxo-1,6-dihydropyrimidin-4-yl)-N-(2-(pyrrolidin-1-yl)ethyl)acetamide, Formic Acid]",1000 to 200000
11,"C[C@H](CC(=O)N1CCC(O)(Cn2cnc(NCCN3CCC[C@H]3C)cc2=O)CC1)c1ccccc1 [Example 114, 3-((4-Hydroxy-1-((R)-3-phenylbutanoyl)piperidin-4-yl)methyl)-6-((2-((R)-2-methylpyrrolidin-1-yl)ethyl)amino)pyrimidin-4(3H)-one, Formic Acid]",< 250
12,"C[C@H](CC(=O)N1CCC(O)(Cc2cnc(-c3ccccc3)cn2)CC1)c1ccccc1 [Example 115, (R)-1-(4-Hydroxy-4-((5-phenylpyrazin-2-yl)methyl)piperidin-1-yl)-3-phenylbutan-1-one]",1000 to 200000

# Reference: patent US10766903B2 (ALMAC DISCOVERY LIMITED, priority 2016, dated 2020)
